Results taken from patent US9040663B2, “Melanocortin receptor-specific peptides” (AstraZeneca AB, priority 2009, dated 2015).
Read-outs that look alike come from different tables or passages of the source. Positions of bridges follow the written chain, without caps; N, C: chain ends. Non-standard residues stand in square brackets, D forms with d. Residues, ends and D or L forms follow the SMILES beside them. dPhe(4-CN) = N#Cc1ccc(C[C@@H](N)C(=O)O)cc1; Orn = NCCC[C@H](N)C(=O)O

What was measured:
hMC4-R [1] = target: T1, hMC4-R (Homo sapiens (Human), UniProt P32245); assay: High and low density hMC4-R functional assay (cAMP, HEK293-T-REx-MC4-R cells); type: cell-based; conditions: for Emax: NDP-α-MSH = 100%, read-out: Intrinsic Activity (%)
Experimental: The cells were then dispensed into 96-well plates (BD 353916) in 198 μL (about 5×10^4) cells/well and incubated for 10 minutes at 37° C. The compound to be tested was diluted with DMSO to a final concentration of 1 mM. […] 120 μL of the 1 mM compound stock was pipetted in the second column on the plate. […] All assay samples were run in duplicate (i.e. each sample was in two low dox and two high dox plates, respectively). The plates were gently shaken and incubated for 15 minutes at 37° C.

hMC4-R [2] = target: T1, hMC4-R; assay: Competitive inhibition binding assay using [I125]-NDP-α-MSH, hMC4-R; conditions: membranes of HEK-293 cells expressing recombinant hMC4-R, read-out: MC4-R Ki
Experimental: 7.1 Competitive Inhibition Assay using [I^125]-NDP-α-MSH.
A competitive inhibition binding assay was performed for exemplified peptides according to the invention using membrane homogenates prepared from HEK-293 cells that express recombinant hMC4-R, hMC3-R, or hMC5-R, and from B-16 mouse melanoma cells (containing endogenous MC1-R). In some instances, HEK-293 cells that express recombinant hMC1-R were employed. Assays were performed in 96 well GF/B Millipore multiscreen filtration plates (MAFB NOB10) pre-coated with 0.5% bovine serum albumin (Fraction V). Membrane homogenates were incubated with 0.2 nM (for hMC4-R) 0.4 nM (for MC3-R and MC5-R) or 0.1 nM (for mouse B16 MC1-R or hMC1-R) [I^125]-NDP-α-MSH (Perkin Elmer) and increasing concentrations of test peptides of the present invention in buffer containing 25 mM HEPES buffer (pH 7.5) with 100 mM NaCl, 2 mM CaCl2, 2 mM MgCl2, 0.3 mM 1,10-phenanthroline, and 0.2% bovine serum albumin. After incubation for 60 minutes at 37° C., the assay mixture was filtered and the membranes washed three times with ice-cold buffer. Filters were dried and counted in a gamma counter for bound radioactivity. […] Maximal specific binding (100%) was defined as the difference in radioactivity (cpm) bound to cell membranes in the absence and presence of 1 μM NDP-α-MSH. […] Each assay was conducted in triplicate and the actual mean values are described, with results less than 0% reported as 0%. Ki values for test peptides of the present invention were determined using Graph-Pad Prism® curve-fitting software.

[3] = 0.1 ng/mL Doxycycline (low density hMC4-R system)
[4] = 10 ng/mL Doxycycline (high density hMC4-R system)

T1 sequence (P32245 whole entry): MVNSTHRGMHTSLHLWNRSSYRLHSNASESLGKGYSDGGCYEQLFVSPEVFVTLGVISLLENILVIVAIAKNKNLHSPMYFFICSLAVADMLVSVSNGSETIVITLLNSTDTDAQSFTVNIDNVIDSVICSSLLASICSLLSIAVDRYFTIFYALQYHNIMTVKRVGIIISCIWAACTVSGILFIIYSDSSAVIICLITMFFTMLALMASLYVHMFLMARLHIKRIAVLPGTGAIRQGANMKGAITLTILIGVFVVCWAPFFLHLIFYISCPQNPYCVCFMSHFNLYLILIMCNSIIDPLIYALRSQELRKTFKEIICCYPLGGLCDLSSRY

Row | Compound | EC50 (hMC4-R [1]; [3]) | Emax (hMC4-R [1]; [3]) | EC50 (hMC4-R [1]; [4]) | Emax (hMC4-R [1]; [4]) | Ki (hMC4-R [2])
1 | CC(=O)N[C@@H](CCCNC(=N)N)C(=O)N[C@H]1CCC(=O)NCCC[C@@H](C(N)=O)NC(=O)[C@H](Cc2c[nH]c3ccccc23)NC(=O)[C@H](CCCNC(=N)N)NC(=O)[C@@H](Cc2cccc(Cl)c2)NC(=O)[C@H](CCN)NC1=O [Example 2, Ac-Arg-cyclo(Glu-Dab-D-Phe(3-Cl)-Arg-Trp-Orn)-NH2] | 0.56 nM | 36% | 0.095 nM | 99% | 0.75 nM
2 | CC(=O)N[C@@H](CCCNC(=N)N)C(=O)N[C@H]1CCC(=O)NCCC[C@@H](C(N)=O)NC(=O)[C@H](Cc2c[nH]c3ccccc23)NC(=O)[C@H](CCCNC(=N)N)NC(=O)[C@@H](Cc2ccc(C#N)cc2)NC(=O)[C@H](CCN)NC1=O [Example 7, Ac-Arg-cyclo(Glu-Dab-D-Phe(4-CN)-Arg-Trp-Orn)-NH2] | 0.3 nM | 48% | 0.135 nM | 100% | 0.833 nM
3 | CC(=O)N[C@@H](CCCNC(=N)N)C(=O)N[C@H]1CCC(=O)NCCC[C@@H](C(N)=O)NC(=O)[C@H](Cc2c[nH]c3ccccc23)NC(=O)[C@H](CCCNC(=N)N)NC(=O)[C@@H](Cc2ccc(O)cc2)NC(=O)[C@H](CCN)NC1=O [Example 8, Ac-Arg-cyclo(Glu-Dab-D-Tyr-Arg-Trp-Orn)-NH2] | 48 nM | 71% | 0.55 nM | 87% | 75 nM
4 | CC(=O)N[C@@H](CCCNC(=N)N)C(=O)N[C@H]1CCC(=O)NCCC[C@@H](C(N)=O)NC(=O)[C@H](Cc2c[nH]c3ccccc23)NC(=O)[C@H](CCCNC(=N)N)NC(=O)[C@@H](Cc2ccccc2F)NC(=O)[C@H](CCN)NC1=O [Example 9, Ac-Arg-cyclo(Glu-Dab-D-Phe(2-F)-Arg-Trp-Orn)-NH2] | 0.09 nM | 91% | 0.035 nM | 89% | 0.7 nM
5 | CC(=O)N[C@@H](CCCNC(=N)N)C(=O)N[C@H]1CCC(=O)NCCC[C@@H](C(N)=O)NC(=O)[C@H](Cc2c[nH]c3ccccc23)NC(=O)[C@H](CCCNC(=N)N)NC(=O)[C@@H](Cc2ccccc2C#N)NC(=O)[C@H](CCN)NC1=O [Example 12, Ac-Arg-cyclo(Glu-Dab-D-Phe(2-CN)-Arg-Trp-Orn)-NH2] | 34 nM | 64% | 0.5 nM | 97% | 45 nM
6 | CC(=O)N[C@@H](CCCNC(=N)N)C(=O)N[C@H]1CCC(=O)NCCC[C@@H](C(N)=O)NC(=O)[C@H](Cc2c[nH]c3ccccc23)NC(=O)[C@H](CCCNC(=N)N)NC(=O)[C@@H](Cc2cccc(C(F)(F)F)c2)NC(=O)[C@H](CCN)NC1=O [Example 14, Ac-Arg-cyclo(Glu-Dab-D-Phe(3-CF3)-Arg-Trp-Orn)-NH2] | 8 nM | 16% | 0.4 nM | 93% | 0.95 nM
7 | CC(=O)N[C@@H](CCCNC(=N)N)C(=O)N[C@H]1CCC(=O)NCCC[C@@H](C(N)=O)NC(=O)[C@H](Cc2c[nH]c3ccccc23)NC(=O)[C@H](CCCNC(=N)N)NC(=O)[C@@H](Cc2ccc(C)cc2)NC(=O)[C@H](CCN)NC1=O [Example 15, Ac-Arg-cyclo(Glu-Dab-D-Phe(4-Me)-Arg-Trp-Orn)-NH2] | 0.165 nM | 16% | 0.2 nM | 90% | 0.145 nM
8 | CC(=O)N[C@@H](CCCNC(=N)N)C(=O)N[C@H]1CCC(=O)NCCC[C@@H](C(N)=O)NC(=O)[C@H](Cc2c[nH]c3ccccc23)NC(=O)[C@H](CCCNC(=N)N)NC(=O)[C@@H](Cc2cc(F)cc(F)c2)NC(=O)[C@H](CCN)NC1=O [Example 17, Ac-Arg-cyclo(Glu-Dab-D-Phe(3,5-diF)-Arg-Trp-Orn)-NH2] | 0.95 nM | 64% | 0.12 nM | 95% | 2 nM
9 | CC(=O)N[C@@H](CCCNC(=N)N)C(=O)N[C@H]1CCC(=O)NCCC[C@@H](C(N)=O)NC(=O)[C@H](Cc2c[nH]c3ccccc23)NC(=O)[C@H](CCCNC(=N)N)NC(=O)[C@@H](Cc2ccccc2C)NC(=O)[C@H](CCN)NC1=O [Example 18, Ac-Arg-cyclo(Glu-Dab-D-Phe(2-Me)-Arg-Trp-Orn)-NH2] | 0.14 nM | 83% | 0.085 nM | 97% | 0.5 nM
10 | CC(=O)N[C@H](CCCNC(=N)N)C(=O)N[C@H]1CC(=O)NCCCC[C@@H](C(N)=O)NC(=O)[C@H](Cc2c[nH]c3ccccc23)NC(=O)[C@H](CCCNC(=N)N)NC(=O)[C@@H](Cc2ccc(C#N)cc2)NC(=O)[C@H](CCC(N)=O)NC1=O [Example 81, Ac-D-Arg-cyclo(Asp-Gln-D-Phe(4-CN)-Arg-Trp-Lys)-NH2] | 4 nM | 23% | 0.45 nM | 85% | –
11 | CC(=O)N[C@@H](CCCNC(=N)N)C(=O)N[C@H]1CCC(=O)NCCC[C@@H](C(=O)O)NC(=O)[C@H](Cc2c[nH]c3ccccc23)NC(=O)[C@H](CCCNC(=N)N)NC(=O)[C@@H](Cc2ccc(C#N)cc2)NC(=O)[C@H](CC(N)=O)NC1=O [Example 85, Ac-Arg-cyclo(Glu-Asn-D-Phe(4-CN)-Arg-Trp-Orn)-OH] | 15 nM | 36% | – | 94% | –
12 | CC(=O)N[C@@H](CCCNC(=N)N)C(=O)N[C@H]1CCCNC(=O)CC[C@@H](C(N)=O)NC(=O)[C@H](Cc2c[nH]c3ccccc23)NC(=O)[C@H](CCCNC(=N)N)NC(=O)[C@@H](Cc2ccc(C#N)cc2)NC(=O)[C@H](CCC(N)=O)NC1=O [Example 94, Ac-Arg-cyclo(Orn-Gln-D-Phe(4-CN)-Arg-Trp-Glu)-NH2] | – | 32% | 0.09 nM | 92% | –
13 | CC(=O)N[C@@H](CCCNC(=N)N)C(=O)N[C@H]1CCC(=O)NCCC[C@@H](C(=O)O)NC(=O)[C@H](Cc2c[nH]c3ccccc23)NC(=O)[C@H](CCCNC(=N)N)NC(=O)[C@@H](Cc2cc(F)c(F)c(F)c2)NC(=O)[C@H](CCC(N)=O)NC1=O [Example 97, Ac-Arg-cyclo(Glu-Gln-D-Phe(3,4,5-triF)-Arg-Trp-Orn)-NH2] | – | 49% | 0.1 nM | 100% | –
14 | CC(=O)N[C@@H](CCCNC(=N)N)C(=O)N[C@H]1CCCNC(=O)CC[C@@H](C(N)=O)NC(=O)[C@H](Cc2c[nH]c3ccccc23)NC(=O)[C@H](CCCNC(=N)N)NC(=O)[C@@H](Cc2cc(F)c(F)c(F)c2)NC(=O)[C@H](CCC(N)=O)NC1=O [Example 98, Ac-Arg-cyclo(Orn-Gln-D-Phe(3,4,5-triF)-Arg-Trp-Glu)-NH2] | 0.45 nM | 47% | 0.14 nM | 100% | –
15 | CC(=O)N[C@@H](CCCNC(=N)N)C(=O)N[C@H]1CCC(=O)NCCC[C@@H](C(N)=O)NC(=O)[C@H](Cc2c[nH]c3ccccc23)NC(=O)[C@H](CCCNC(=N)N)NC(=O)[C@@H](Cc2ccc(F)cc2)NC(=O)[C@@H]2CCCN2C1=O [Example 102, Ac-Arg-cyclo(Glu-Pro-D-Phe(4-F)-Arg-Trp-Orn)-OH] | 18 nM | – | – | – | –
16 | CC(=O)N[C@@H](CCCNC(=N)N)C(=O)N[C@H]1CC(=O)NCCCC[C@@H](C(N)=O)NC(=O)[C@H](Cc2c[nH]c3ccccc23)NC(=O)[C@H](CCCNC(=N)N)NC(=O)[C@@H](Cc2ccccc2F)NC(=O)[C@@H]2CCCN2C1=O [Example 104, Ac-Arg-cyclo(Asp-Pro-D-Phe(2-F)-Arg-Trp-Lys)-NH2] | – | 16% | 10 nM | 100% | –
17 | CC(=O)N[C@@H](CCCNC(=N)N)C(=O)N[C@H]1CCC(=O)NCCC[C@@H](C(=O)O)NC(=O)[C@H](Cc2c[nH]c3ccccc23)NC(=O)[C@H](CCCNC(=N)N)NC(=O)[C@@H](Cc2ccc(C#N)cc2)NC(=O)[C@H](CCC(=O)O)NC1=O [Example 109, Ac-Arg-cyclo(Glu-Glu-D-Phe(4-CN)-Arg-Trp-Orn)-OH] (Ac-REE[dPhe(4-CN)]RW[Orn]-OH; lactam 2-7) | – | 2% | – | 69% | –
